{"source": "paper PMC9098912", "about": "“Molecular basis for inhibiting human glucose transporters by exofacial inhibitors” (Nature Communications, 2022)", "key": {"GLUT1": {"molecular_target": "T1, GLUT1 (Homo sapiens, UniProt P11166, N45T)", "T1 construct": "made in house", "T1 sequence (P11166 1-492 N45T)": "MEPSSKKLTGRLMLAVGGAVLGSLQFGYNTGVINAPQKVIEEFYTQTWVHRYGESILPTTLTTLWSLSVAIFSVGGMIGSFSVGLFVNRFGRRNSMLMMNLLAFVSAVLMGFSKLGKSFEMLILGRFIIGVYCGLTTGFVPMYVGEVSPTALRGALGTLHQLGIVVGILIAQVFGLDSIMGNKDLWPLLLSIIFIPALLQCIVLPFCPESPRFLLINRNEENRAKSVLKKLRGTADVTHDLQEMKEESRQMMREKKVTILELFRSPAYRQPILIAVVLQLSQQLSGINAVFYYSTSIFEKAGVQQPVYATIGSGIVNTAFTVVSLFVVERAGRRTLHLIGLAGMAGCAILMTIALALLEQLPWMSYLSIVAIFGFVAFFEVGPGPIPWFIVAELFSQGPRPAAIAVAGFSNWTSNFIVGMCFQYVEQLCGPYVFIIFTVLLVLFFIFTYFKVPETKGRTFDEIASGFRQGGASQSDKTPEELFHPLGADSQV", "assay": "Microscale thermophoresis (MST) binding assay", "conditions": "for Figure 2c: MST binding curve, Mean: log[SA47]", "method": "(§1) All mutants were generated by standard PCR-based strategy.\n(§2) Inhibitors with serial dilutions were mixed with indicated protein. […] MST analyses were conducted on a Monolith NT. […] The MST data was analyzed by Monolith NT.115."}, "GLUT3 F70A": {"molecular_target": "GLUT3 F70A (Homo sapiens, UniProt P11169, F70A/N43T)", "sequence (P11169 whole entry N43T/F70A, the tested form may be a part)": "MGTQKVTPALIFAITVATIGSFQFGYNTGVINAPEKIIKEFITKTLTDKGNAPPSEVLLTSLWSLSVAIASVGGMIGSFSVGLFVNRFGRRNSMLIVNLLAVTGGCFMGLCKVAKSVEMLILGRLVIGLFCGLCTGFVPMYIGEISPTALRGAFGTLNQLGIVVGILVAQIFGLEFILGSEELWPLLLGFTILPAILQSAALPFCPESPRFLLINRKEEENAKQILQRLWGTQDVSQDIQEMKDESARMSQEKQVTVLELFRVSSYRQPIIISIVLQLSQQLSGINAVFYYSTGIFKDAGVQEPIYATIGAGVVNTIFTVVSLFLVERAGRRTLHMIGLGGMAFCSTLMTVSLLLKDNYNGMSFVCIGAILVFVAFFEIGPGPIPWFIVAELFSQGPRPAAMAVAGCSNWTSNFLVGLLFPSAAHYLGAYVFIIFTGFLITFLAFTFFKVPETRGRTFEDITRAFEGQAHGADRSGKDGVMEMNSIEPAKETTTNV", "assay": "biochemical", "method": "The recombinant human glucose transporter GLUT1(N45T) and E. coli (strain O157:H7) D-xylose:proton symporter XylE were expressed and purified as described previously[17],[26]. […] In brief, the cDNA of human GLUT3 was cloned into a modified pFastBac vector (Invitrogen) fused with an N-terminal His10 tag. All mutants were generated by standard PCR-based strategy.\nas §2"}, "GLUT3 E378A": {"molecular_target": "T2, GLUT3 E378A (Homo sapiens, UniProt P11169, E378A/N43T)", "T2 construct": "His10 (N); made in house; host or cells: Sf9 insect cells (baculovirus)", "T2 sequence (P11169 1-496 N43T/E378A)": "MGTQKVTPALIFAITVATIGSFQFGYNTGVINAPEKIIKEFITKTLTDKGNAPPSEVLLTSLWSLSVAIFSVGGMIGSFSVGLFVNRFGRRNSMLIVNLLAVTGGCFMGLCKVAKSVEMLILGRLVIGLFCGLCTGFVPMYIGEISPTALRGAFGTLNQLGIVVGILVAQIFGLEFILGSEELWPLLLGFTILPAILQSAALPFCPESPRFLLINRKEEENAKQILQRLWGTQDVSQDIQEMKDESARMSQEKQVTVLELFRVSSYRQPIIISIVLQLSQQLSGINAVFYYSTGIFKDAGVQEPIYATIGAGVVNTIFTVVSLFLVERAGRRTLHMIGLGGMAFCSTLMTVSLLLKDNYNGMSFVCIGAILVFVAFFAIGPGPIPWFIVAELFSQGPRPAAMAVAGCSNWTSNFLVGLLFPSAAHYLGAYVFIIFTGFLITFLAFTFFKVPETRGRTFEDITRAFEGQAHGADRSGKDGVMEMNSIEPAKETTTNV", "assay": "MST binding assay, GLUT3 variant", "conditions": "read-out: Kd of SA47", "method": "as §1, §2"}, "GLUT3 N315A": {"molecular_target": "T3, GLUT3 N315A (Homo sapiens, UniProt P11169, N315A/N43T)", "T3 construct": "His10 (N); made in house; host or cells: Sf9 insect cells (baculovirus)", "T3 sequence (P11169 1-496 N43T/N315A)": "T2 sequence (P11169 1-496 N43T/E378A) with N315A, A378E", "assay": "MST binding assay, GLUT3 variant", "conditions": "read-out: Kd of SA47", "method": "as §1, §2"}, "Water solubility": {"assay": "Water solubility", "format": "physicochemical", "conditions": "can only be applied up to 160 μM"}}, "note": "Residue numbers refer to the chain shown, from its start.", "data": [{"smiles": "COC(=O)CCNCc1ccccc1-n1ncc2c(N3CCN(c4cc(F)ccc4OC)CC3)ncnc21", "note": "[SA47]", "values": [{"measurement": "Kd", "setting": "GLUT1", "result": "310 ± 58.2", "unit": "nM"}, {"measurement": "Figure 2c: MST binding curve, Mean", "setting": "GLUT1; M -4.90309", "result": 102.821}, {"measurement": "Figure 2c: MST binding curve, Mean", "setting": "GLUT1; M -5.20412", "result": 94.0406}, {"measurement": "Figure 2c: MST binding curve, Mean", "setting": "GLUT1; M -5.50515", "result": 85.0371}, {"measurement": "Figure 2c: MST binding curve, Mean", "setting": "GLUT1; M -5.80618", "result": 78.9623}, {"measurement": "Figure 2c: MST binding curve, Mean", "setting": "GLUT1; M -6.10721", "result": 63.517}, {"measurement": "Figure 2c: MST binding curve, Mean", "setting": "GLUT1; M -6.40824", "result": 44.2639}, {"measurement": "Figure 2c: MST binding curve, Mean", "setting": "GLUT1; M -6.70927", "result": 30.0958}, {"measurement": "Figure 2c: MST binding curve, Mean", "setting": "GLUT1; M -7.0103", "result": 11.0052}, {"measurement": "Figure 2c: MST binding curve, Mean", "setting": "GLUT1; M -7.31133", "result": 3.8567}, {"measurement": "Figure 2c: MST binding curve, Mean", "setting": "GLUT1; M -7.61236", "result": 3.527}, {"measurement": "Figure 2c: MST binding curve, Mean", "setting": "GLUT1; M -7.91339", "result": -1.6488}, {"measurement": "Figure 2c: MST binding curve, Mean", "setting": "GLUT1; M -8.21442", "result": -3.8284}, {"measurement": "Figure 2c: MST binding curve, Mean", "setting": "GLUT1; M -8.51545", "result": 7.0621}, {"measurement": "Figure 2c: MST binding curve, Mean", "setting": "GLUT1; M -8.81648", "result": 2.3819}, {"measurement": "Kd", "setting": "GLUT3 F70A", "result": "1500 ± 200", "unit": "nM"}, {"measurement": "Kd", "setting": "GLUT3 E378A", "result": "1100 ± 100", "unit": "nM"}, {"measurement": "Kd", "setting": "GLUT3 N315A", "result": "9500 ± 2200", "unit": "nM"}, {"measurement": "Water solubility", "setting": "Water solubility", "result": "limited"}]}]}
